Laboratory results: patent publication US20240277829A1, “HIV-1 VACCINATION AND SAMT-247 MICROBICIDE TO PREVENT HIV-1 INFECTION” (priority 2021, published 2024)

Tests used:
Format in all cases: cell-based
[1] = tested on: NKG2A^+ NK cells; assay: Intracellular cytokines of human blood NK cells using SAMT-247 and PMA stimulation with or without zinc chelator; details: PMA stimulation with or without SAMT-247, presence of TPEN
Method: Intracellular cytokines of Human blood NK cells using SAMT-247 and PMA stimulation with or without zinc chelator. The levels of NKG2A^+ NK cells were measured in blood of healthy humans. Human PBMCs were thawed and cultured in R10 in the presence or absence of SAMT-247 and/or PMA for 12 hours. Cells were incubated with or without Zinc chelator TPEN (cat. #P4413-100 MG, 5 μM) for 12 h. Subsequently, PBMCs were surface stained with the following: BUV737 anti-CD3 (SP34-2; cat. #741872, 5 μl), Alexa700 anti-CD20 (2H7; cat. #560631, 5 μl), BV786 anti-CD45 (HI30; cat. #563716, 5 μl) from BD Biosciences; APC-H7 anti-CD11b (ICRF44; cat. #47-0118-42, 5 μl) from eBioscience and PE-Cy7 anti-NKG2A (Z199; cat. #B10246, 5 μl) from Beckman coulter for 30 minutes at room temperature. This was followed by permeabilization with FOX3-transcription buffer set (cat. #00-5523-00) from eBioscience according to the manufacture's recommendation and subsequently intracellular staining with the following: BV750 anti-TNF-α (MAB11; cat. #566359, 5 μl), BUV396 anti-IFN-γ (B27; cat. #563563, 5 μl), BV510 anti-GranB (GB11; cat. #563388, 5 μl) from BD Biosciences; and FITC anti-Perforin (pf-344; cat. #3465-7, 5 μl) from MABTECH for 30 minutes at room temperature. Flow cytometry acquisitions were performed on a FACSymphony A5 and examined using FACSDIVA™ software (BD Biosciences).

[2] = tested on: NKG2A^+ cells; assay: Zinc chelation: macaque blood NK cells, SAMT-247 and/or gp120 peptides with or without TPEN; details: for frequency of IFN-γ^+ NKG2A^+ cells / frequency of TNF-α^+ NKG2A^+ cells: with vs without zinc chelator
Method: (§1) Zinc chelation: The frequencies and cytokine levels of NK cells, monocytes and T cells were measured in macaque blood. Cryopreserved PBMCs were thawed and cultured in R10 in the presence/or absence of SAMT-247 and/or gp120 peptides for 12 hours. Cells were incubated with or without Zinc chelator TPEN (cat. #P4413-100 MG, 5 μM) for 12 h. Subsequently, cells were stained for live cells with Live/Dead Blue dye (cat. #L34962, 0.5 μl) from Thermofisher; followed by surface staining with the following: Alexa 700 anti-CD3 (SP34-2; cat. #557917, 5 μl), BV711 anti-CD4 (L200; cat. #563913, 5 μl), BB700 anti-CD8 (RPA-T8; cat. #566452, 5 μl), BUV737 anti-CD20 (2H7; cat. #612848, 5 μl), PE anti-CD45 (D058-1283; cat. #552833, 5 μl), BV786 anti-CCR5 (3A9; cat. #565001, 5 μl), BV496 anti-CD16 (3G8; cat. #612944, 5 μl), BUV661 anti-HLA-DR (G46-6; cat. #612980, 5 μl), BUV805 anti-CD14 (M5E2; cat. #565779, 5 μl) from BD Biosciences; APC-H7 anti-CD11b (ICRF44; cat. #47-0118-42, 5 μl), PE-Cy5 anti-CD95 (ICRF44; cat. #15-0959-42, 5 μl) from eBioscience; APC anti-α4β7, provided by the NIH Nonhuman Primate Reagent Resource (R24 OD010976, and NIAID contract HHSN272201300031C); BV605 anti-CCR6 (G034E3; cat. #353420, 5 μl), BV650 anti-CXCR3 (G025H7; cat. #353730, 5 μl), from Biolegend and PE-Cy7 anti-NKG2A (Z199; cat. #B10246, 5 μl) from Beckman coulter for 30 minutes at room temperature. This was followed by permeabilization with a FOX3-transcription buffer set (cat. #00-5523-00) from eBioscience according to the manufacture's recommendation and subsequently intracellular staining with the following: BV750 anti-TNF-α (MAB11; cat. #566359, 5 μl), BUV395 anti-IFN-γ (B27; cat. #563563, 5 μl), BV510 anti-GranB (GB11; cat. #563388, 5 μl), BV421 anti-IL-10 (JES3-9D7; cat. #564053, 5 μl), PE-CF594 anti-Ki67 (B56; cat. #567120, 5 μl) from BD Biosciences and FITC anti-Perforin (pf-344; cat. #3465-7, 5 μl) from MABTECH for 30 minutes at room temperature. Flow cytometry acquisitions were performed on a FACSYMPHONY™ A5 and examined using FACSDIVA™ software (BD Biosciences).

[3] = tested on: CD14^+ monocytes; assay: Zinc chelation: macaque blood monocytes, SAMT-247 and/or gp120 peptides with or without TPEN
Method: as §1

[4] = tested on: Th1 and Th2 cells; assay: Zinc chelation: macaque blood T cells, SAMT-247 and/or gp120 peptides with or without TPEN; details: for frequency of IFN-γ^+ Th1^+ cells / frequency of IFN-γ^+ Th1^+CCR5^+α4β7^+ cells / frequency of IFN-γ^+ Th1^+CCR5^−α4β7^− cells / frequency of IFN-γ^+ Th2^+ cells / frequency of IFN-γ^+ Th2^+CCR5^+α4β7^+ cells / frequency of IFN-γ^+ Th2^+CCR5^−α4β7^− cells / frequency of IL-10^+ Th1^+ cells / frequency of IL-10^+ Th1^+CCR5^+α4β7^+ cells / frequency of IL-10^+ Th1^+CCR5^−α4β7^− cells / frequency of IL-10^+ Th2^+ cells / frequency of IL-10^+ Th2^+CCR5^+α4β7^+ cells / frequency of IL-10^+ Th2^+CCR5^−α4β7^− cells / frequency of TNF-α^+ Th1^+ cells / frequency of TNF-α^+ Th1^+CCR5^+α4β7^+ cells / frequency of TNF-α^+ Th1^+CCR5^−α4β7^− cells / frequency of TNF-α^+ Th2^+ cells / frequency of TNF-α^+ Th2^+CCR5^+α4β7^+ cells: with vs without zinc chelator
Method: as §1

[5] = tested on: human NK cells; assay: Zinc intensity by confocal microscopy
Method: Zinc intensity. NKG2A^+ NK cells were isolated from cryopreserved healthy human PBMCs. NK cells were labeled with APC anti-NKG2A (Z199, cat. #A60797) from Beckman coulter, followed by separation with APC MicroBeads (#130-090-855, Miltenyi Biotec Inc.) using manufacturer instructions. Subsequently NK cells were cultured in the presence or absence of SAMT-247 and/or PMA stimulation for 7 hours. Cells were plated on ibidi chamber slides. Cells were washed and treated with zinc chelator or remained untreated for 30 minutes according to the manufacturers' recommendation using a cell-based Zinc assay kit (cat. #ab241014, Abcam). Subsequently cells were washed and stained with Zinc probe-green (cat. #ab241014, Abcam) and DAPI (Molecular Probes, Waltham, MA, USA) was used to visualize nuclei. Signals were visualized with a confocal laser-scanning microscope (Leica SP8, Buffalo Grove, IL, USA). Image processing was performed using the Imaris 9.2.1 software.

[6] = gp120 pooled peptide + SAMT-247
[7] = SAMT-247, with vs without zinc chelator
[8] = gp120 pooled peptide + SAMT-247, with vs without zinc chelator
[9] = gp120 pooled peptide, with vs without zinc chelator
[10] = gp120 pooled peptides ± SAMT-247, TPEN treatment

Compound: c1ccc(CN(CCN(Cc2ccccn2)Cc2ccccn2)Cc2ccccn2)nc1 [Zinc chelator, N, N,N′,N′ tetrakis-(2-pyridyl-methyl) ethylendiamine]
- IFN-γ and TNF-α expression in human NKG2A^+ cells [1]: significantly reduced
- IFN-γ and TNF-α expression in NKG2A^+ cells ([2]; gp120 peptide and gp120 peptide/SAMT-247 treated cells, TPEN): significantly decreased
- SAMT-247's ability to increase granzyme B and perforin in NKG2A^+ cells ([2]; gp120 peptide stimulation, presence of TPEN): No significant changes
- frequency of IFN-γ^+ NKG2A^+ cells [2, 6]: ↓
- frequency of TNF-α^+ NKG2A^+ cells [2, 6]: ↓
- frequency of IFN-γ^+ NKG2A^+ cells ([2]; gp120 pooled peptide): ↓
- frequency of TNF-α^+ NKG2A^+ cells ([2]; gp120 pooled peptide): ↓
- frequency of CD14^+ cells [3, 7]: ↓
- frequency of IL-10^+ CD14^+ cells [3, 7]: ↓
- frequency of CD14^+ cells [3, 8]: ↓
- frequency of IL-10^+ CD14^+ cells [3, 8]: ↓
- frequency of CD14^+ cells [3, 9]: ↓
- frequency of IL-10^+ CD14^+ cells [3, 9]: ↓
- IL-10 production by CD14^+ cells [3, 10]: decreased
- frequency of CD14^+ cells [3, 10]: decreased
- frequency of IFN-γ^+ Th1^+ cells ([4]; SAMT-247): ↓
- frequency of IFN-γ^+ Th1^+CCR5^+α4β7^+ cells ([4]; SAMT-247): ↓
- frequency of IFN-γ^+ Th1^+CCR5^−α4β7^− cells ([4]; SAMT-247): ↓
- frequency of IFN-γ^+ Th2^+ cells ([4]; SAMT-247): ↓
- frequency of IFN-γ^+ Th2^+CCR5^+α4β7^+ cells ([4]; SAMT-247): ↓
- frequency of IFN-γ^+ Th2^+CCR5^−α4β7^− cells ([4]; SAMT-247): ↓
- frequency of IL-10^+ Th1^+ cells ([4]; SAMT-247): ↓
- frequency of IL-10^+ Th1^+CCR5^+α4β7^+ cells ([4]; SAMT-247): ↓
- frequency of IL-10^+ Th1^+CCR5^−α4β7^− cells ([4]; SAMT-247): ↓
- frequency of IL-10^+ Th2^+ cells ([4]; SAMT-247): ↓
- frequency of IL-10^+ Th2^+CCR5^+α4β7^+ cells ([4]; SAMT-247): ↓
- frequency of IL-10^+ Th2^+CCR5^−α4β7^− cells ([4]; SAMT-247): ↓
- frequency of TNF-α^+ Th1^+ cells ([4]; SAMT-247): ↓
- frequency of TNF-α^+ Th1^+CCR5^+α4β7^+ cells ([4]; SAMT-247): ↓
- frequency of TNF-α^+ Th1^+CCR5^−α4β7^− cells ([4]; SAMT-247): ↓
- frequency of TNF-α^+ Th2^+ cells ([4]; SAMT-247): ↓
- frequency of TNF-α^+ Th2^+CCR5^+α4β7^+ cells ([4]; SAMT-247): ↓
- INF-γ and IL-10 production in Th2 CCR5^−α4β7^− cells ([4]; TPEN): decreased
- frequency of IFN-γ^+ Th1^+CCR5^+α4β7^+ cells ([4]; Unstim): ↓
- frequency of IL-10^+ Th1^+CCR5^+α4β7^+ cells ([4]; Unstim): ↓
- frequency of IL-10^+ Th1^+CCR5^−α4β7^− cells ([4]; Unstim): ↓
- frequency of IL-10^+ Th2^+CCR5^+α4β7^+ cells ([4]; Unstim): ↓
- frequency of TNF-α^+ Th2^+CCR5^+α4β7^+ cells ([4]; Unstim): ↓
- frequency of IFN-γ^+ Th1^+ cells [4, 6]: ↓
- frequency of IFN-γ^+ Th1^+CCR5^+α4β7^+ cells [4, 6]: ↓
- frequency of IFN-γ^+ Th1^+CCR5^−α4β7^− cells [4, 6]: ↓
- frequency of IFN-γ^+ Th2^+ cells [4, 6]: ↓
- frequency of IFN-γ^+ Th2^+CCR5^+α4β7^+ cells [4, 6]: ↓
- frequency of IFN-γ^+ Th2^+CCR5^−α4β7^− cells [4, 6]: ↓
- frequency of IL-10^+ Th1^+ cells [4, 6]: ↓
- frequency of IL-10^+ Th1^+CCR5^+α4β7^+ cells [4, 6]: ↓
- frequency of IL-10^+ Th1^+CCR5^−α4β7^− cells [4, 6]: ↓
- frequency of IL-10^+ Th2^+ cells [4, 6]: ↓
- frequency of IL-10^+ Th2^+CCR5^+α4β7^+ cells [4, 6]: ↓
- frequency of IL-10^+ Th2^+CCR5^−α4β7^− cells [4, 6]: ↓
- frequency of TNF-α^+ Th1^+CCR5^−α4β7^− cells [4, 6]: ↓
- frequency of TNF-α^+ Th2^+ cells [4, 6]: ↓
- frequency of TNF-α^+ Th2^+CCR5^+α4β7^+ cells [4, 6]: ↓
- frequency of IFN-γ^+ Th1^+CCR5^+α4β7^+ cells ([4]; gp120 pooled peptide): ↓
- frequency of IFN-γ^+ Th1^+CCR5^−α4β7^− cells ([4]; gp120 pooled peptide): ↓
- frequency of IFN-γ^+ Th2^+ cells ([4]; gp120 pooled peptide): ↓
- frequency of IFN-γ^+ Th2^+CCR5^+α4β7^+ cells ([4]; gp120 pooled peptide): ↓
- frequency of IL-10^+ Th1^+CCR5^+α4β7^+ cells ([4]; gp120 pooled peptide): ↓
- frequency of IL-10^+ Th1^+CCR5^−α4β7^− cells ([4]; gp120 pooled peptide): ↓
- frequency of IL-10^+ Th2^+CCR5^+α4β7^+ cells ([4]; gp120 pooled peptide): ↓
- frequency of IL-10^+ Th2^+CCR5^−α4β7^− cells ([4]; gp120 pooled peptide): ↓
- frequency of TNF-α^+ Th1^+ cells ([4]; gp120 pooled peptide): ↓
- frequency of TNF-α^+ Th1^+CCR5^+α4β7^+ cells ([4]; gp120 pooled peptide): ↓
- frequency of TNF-α^+ Th2^+CCR5^+α4β7^+ cells ([4]; gp120 pooled peptide): ↓
- percentage of CCR5^+α4β7^+ Th1 and Th2 cells ([4]; week 17, gp120 pooled peptides ± SAMT-247, TPEN): decreased percentage
- number of Th1 CCR5^−α4β7^− cells ([4]; week 17, gp120 pooled peptides ± SAMT-247, Zn chelation): decreased
- zinc intensity of PMA+SAMT-247 stimulated cells vs not treated with chelator [5]: significantly lower
